This experiment deals with myeloperoxidase (MPO) (Homo sapiens (Human), UniProt P05164). Briefly: MPO peroxidation assay (Amplex Red assay). Type of experiment: biochemical.
Setting [1] is: MPO peroxidation, potency range class, read-out: Amplex Red Assay IC50 value.

pIC50: −log10 of the molar value. Like-named read-outs stand apart in the source and are kept apart here.

Sequence of myeloperoxidase (MPO) (P05164 49-745): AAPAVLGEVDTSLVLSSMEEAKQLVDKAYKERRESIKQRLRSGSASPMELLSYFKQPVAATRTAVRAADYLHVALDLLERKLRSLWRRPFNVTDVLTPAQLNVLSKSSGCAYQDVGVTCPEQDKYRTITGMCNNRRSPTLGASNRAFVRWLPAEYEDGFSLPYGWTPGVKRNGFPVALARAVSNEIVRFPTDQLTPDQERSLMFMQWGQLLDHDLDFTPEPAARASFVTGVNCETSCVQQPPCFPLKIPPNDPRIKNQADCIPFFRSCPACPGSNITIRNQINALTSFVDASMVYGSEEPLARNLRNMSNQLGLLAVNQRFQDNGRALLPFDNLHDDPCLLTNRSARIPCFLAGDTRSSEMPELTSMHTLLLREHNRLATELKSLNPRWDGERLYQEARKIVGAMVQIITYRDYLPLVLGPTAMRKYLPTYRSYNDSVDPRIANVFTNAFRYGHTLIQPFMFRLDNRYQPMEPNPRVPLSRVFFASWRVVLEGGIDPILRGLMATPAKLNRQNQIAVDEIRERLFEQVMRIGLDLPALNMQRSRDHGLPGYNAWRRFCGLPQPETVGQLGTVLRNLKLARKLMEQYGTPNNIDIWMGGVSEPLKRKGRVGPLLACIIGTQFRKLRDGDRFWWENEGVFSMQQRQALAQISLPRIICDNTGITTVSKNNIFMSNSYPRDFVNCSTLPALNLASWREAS

As usually defined, the pIC50 is −log10 of the IC50, conventionally taken in molar units. `Nc1cc(Cc2cccc(Cl)c2)c2nn[nH]c2n1` [Example 2, 7-(3-chlorobenzyl)-3H-[1,2,3]triazolo [4,5-b]pyridin-5-amine]: the pIC50 is 7.00 to 9.00.
Turning to `Cc1ccc(Cc2cc(N)nc3[nH]nnc23)cc1` [Example 3, 7-(4-methylbenzyl)-3H-[1,2,3]triazolo [4,5-b]pyridin-5-amine], the pIC50 under setting [1] is 6.00 to 7.00.
For `COc1ccc(Cc2cc(N)nc3[nH]nnc23)cc1` [Example 4, 7-(4-methoxybenzyl)-3H-[1,2,3] triazolo[4,5-b]pyridin-5-amine], the negative logarithm of the IC50 (pIC50) under setting [1] is 6.00 to 7.00.
As for `Nc1cc(Cc2ccc3ccccc3c2)c2nn[nH]c2n1` [Example 6, 7-(naphthalen-2-ylmethyl)-3H-[1,2,3] triazolo[4,5-b]pyridin-5-amine], the pIC50 was 6.00 to 7.00.
Consider `COC(=O)c1cccc(Cc2cc(N)nc3[nH]nnc23)c1` [Example 7, Methyl 3-((5-amino-3H-[1,2,3]triazolo[4,5-b]pyridin-7-yl)methyl)benzoate], for which the pIC50 was 7.00 to 9.00.
Consider `N#Cc1ccc(F)c(Cc2cc(N)nc3[nH]nnc23)c1` [Example 8, 3-((5-amino-3H-[1,2,3]triazolo [4,5-b]pyridin-7-yl)methyl)-4-fluorobenzo-nitrile], for which the pIC50 under setting [1] was 7.00 to 9.00.
Regarding `Cc1cccc(Cc2cc(N)nc3[nH]nnc23)c1F` [Example 9, 7-(2-fluoro-3-methylbenzyl)-3H-[1,2,3]triazolo [4,5-b]pyridin-5-amine], the pIC50 under setting [1] is 7.00 to 9.00.
On the same count and under the same terms, the figure for `COC(=O)c1ccc(Cc2cc(N)nc3[nH]nnc23)c(OC)c1` [Example 10, methyl 4-((5-amino-3H-[1,2,3]triazolo[4,5-b]pyridin-7-yl)methyl)-3-methoxybenzo-ate] is 6.00 to 7.00.
As to `CC(C)(C)OC(=O)N1CCCc2cc(Cc3cc(N)nc4[nH]nnc34)ccc21` [Example 12, tert-butyl 6-((5-amino-3H-[1,2,3]triazolo[4,5-b]pyridin-7-yl)methyl)-3,4-dihydroquinoline-1(2H)-carboxylate], the pIC50 under setting [1] was 6.00 to 7.00.
Same read-out and setting: the figure for `Cc1ccc(-c2cccc(Cc3cc(N)nc4[nH]nnc34)c2)cc1` [Example 15, 7-((4′-methyl-[1,1′-biphenyl]-3-yl)methyl)-3H-[1,2,3]triazolo [4,5-b] pyridin-5-amine] is 6.00 to 7.00.
Molecule `Nc1cc(Cc2cccc(-c3ccccc3)c2)c2nn[nH]c2n1` [Example 17, 7-(Biphenyl-3-ylmethyl)-3H-[1,2,3]triazolo[4,5-b]pyridin-5-amine] had a pIC50 of 7.00 to 9.00.
With `Nc1cc(Cc2c(F)ccc(Cl)c2F)c2nn[nH]c2n1` [Example 18, 7-(3-chloro-2,6-difluorobenzyl)-3H-[1,2,3]triazolo [4,5-b]pyridin-5-amine], the pIC50 under setting [1] is 7.00 to 9.00.
Regarding `Nc1cc(Cc2ccc3cc(F)ccc3c2)c2nn[nH]c2n1` [Example 19, 7-((6-fluoronaphthalen-2-yl)methyl)-3H-[1,2,3]triazolo [4,5-b]pyridin-5-amine], the pIC50 under setting [1] was 6.00 to 7.00.
In the case of `Nc1cc(Cc2ccc3c(c2)OCO3)c2nn[nH]c2n1` [Example 20, 7-(benzo[d][1,3]dioxol-5-ylmethyl)-3H-[1,2,3]triazolo [4,5-b]pyridin-5-amine], the negative-log IC50 (pIC50) under setting [1] was 6.00 to 7.00.
On the same count and under the same terms, to `Nc1cc(Cc2ccc3c(c2)CCC3)c2nn[nH]c2n1` [Example 22, 7-((2,3-dihydro-1H-inden-5-yl)methyl)-3H-[1,2,3]triazolo [4,5-b]pyridin-5-amine] belongs 6.00 to 7.00.
Turning to `Nc1cc(Cc2ccccc2F)c2nn[nH]c2n1` [Example 23, 7-(2-fluorobenzyl)-3H-[1,2,3]triazolo [4,5-b]pyridin-5-amine], the negative-log IC50 (pIC50) is 7.00 to 9.00.
Take `Nc1cc(Cc2cccc(F)c2)c2nn[nH]c2n1` [Example 24, 7-(3-fluorobenzyl)-3H-[1,2,3]triazolo [4,5-b]pyridin-5-amine]: the pIC50 under setting [1] is 7.00 to 9.00.
As for `Nc1cc(Cc2cccc(C(F)(F)F)c2)c2nn[nH]c2n1` [Example 26, 7-(3-(trifluorometh-yl)benzyl)-3H-[1,2,3]triazolo [4,5-b]pyridin-5-amine], the pIC50 was 5.00 to 6.00.
On to `Nc1cc(Cc2cccc(Oc3ccc(F)cc3)c2)c2nn[nH]c2n1` [Example 27, 7-(3-(4-fluorophenoxy)benzyl)-3H-[1,2,3]triazolo [4,5-b]pyridin-5-amine], for which the pIC50 under setting [1] is 6.00 to 7.00.
Consider `Cc1nc(-c2ccc(Cc3cc(N)nc4[nH]nnc34)cc2)no1` [Example 32, 7-(4-(5-methyl-1,2,4-oxadiazol-3-yl)benzyl)-3H-[1,2,3]triazolo [4,5-b] pyridin-5-amine], for which the pIC50 under setting [1] is 6.00 to 7.00.
For the molecule `Nc1cc(Cc2c(F)cccc2F)c2nn[nH]c2n1` [Example 33, 7-(2,6-difluorobenzyl)-3H-[1,2,3] triazolo[4,5-b]pyridin-5-amine], under setting [1], the pIC50 is 7.00 to 9.00.
In the case of `CC(C)(C)c1ccc(Cc2cc(N)nc3[nH]nnc23)cc1` [Example 35], under setting [1], the pIC50 is 6.00 to 7.00.
As to `Nc1cc(Cc2ccc(OC(F)(F)F)cc2)c2nn[nH]c2n1` [Example 36, 7-(4-(trifluorometh-oxy)benzyl)-3H-[1,2,3]triazolo [4,5-b]pyridin-5-amine], the negative-log IC50 (pIC50) under setting [1] is 5.00 to 6.00.
Take `Nc1cc(Cc2ccccc2CS(=O)(=O)c2ccccc2)c2nn[nH]c2n1` [Example 38, 7-(2-((phenylsulfon-yl)methyl)benzyl)-3H-[1,2,3]triazolo [4,5-b]pyridin-5-amine]: under setting [1], the pIC50 is 6.00 to 7.00.
Take `Nc1cc(Cc2ccc(C(=O)c3ccccc3)cc2)c2nn[nH]c2n1` [Example 39, (4-((5-amino-3H-[1,2,3]triazolo [4,5-b]pyridin-7-yl)methyl)phenyl)(phenyl) methanone]: the pIC50 under setting [1] is 6.00 to 7.00.
As to `Nc1cc(Cc2ccc(-c3csnn3)cc2)c2nn[nH]c2n1` [Example 41, 7-(4-(1,2,3-thiadiazol-4-yl)benzyl)-3H-[1,2,3]triazolo [4,5-b]pyridin-5-amine], the pIC50 under setting [1] is 6.00 to 7.00.
`Nc1cc(Cc2cc(F)ccc2F)c2nn[nH]c2n1` [Example 42, 7-(2,5-difluorobenzyl)-3H-[1,2,3] triazolo[4,5-b]pyridin-5-amine]: the pIC50 under setting [1] was 7.00 to 9.00.
Regarding `Nc1cc(Cc2cccc(Cl)c2F)c2nn[nH]c2n1` [Example 45, 7-(3-chloro-2-fluorobenzyl)-3H-[1,2,3] triazolo[4,5-b]pyridin-5-amine], the negative-log IC50 (pIC50) under setting [1] is 7.00 to 9.00.
As for `Nc1cc(Cc2cccc(C(=O)NCc3ccccc3)c2)c2nn[nH]c2n1` [Example 46, 3-((5-Amino-3H-[1,2,3]triazolo[4,5-b]pyridin-7-yl)methyl)-N-benzylbenzamide], the pIC50 under setting [1] is 6.00 to 7.00.
Same read-out and setting: to `Nc1cc(Cc2cccc(OCc3ccccc3)c2)c2nn[nH]c2n1` [Example 49, 7-(3-(Benzyloxy)benzyl)-3H-[1,2,3]triazolo[4,5-b]pyridin-5-amine] belongs 6.00 to 7.00; to `Nc1cc(Cc2cccc(-n3cccn3)c2)c2nn[nH]c2n1` [Example 52, 7-(3-(1H-pyrazol-1-yl)benzyl)-3H-[1,2,3]triazolo [4,5-b]pyridin-5-amine], 6.00 to 7.00.
`Cc1cc(C)n(-c2cccc(Cc3cc(N)nc4[nH]nnc34)c2)n1` [Example 53, 7-(3-(3,5-dimethyl-1H-pyrazol-1-yl)benzyl)-3H-[1,2,3]triazolo [4,5-b] pyridin-5-amine]: the pIC50 under setting [1] was 6.00 to 7.00.
Still for that read-out and setting: the figure for `Cc1cccc(Cc2cc(N)nc3[nH]nnc23)n1` [Example 54, 7-((6-methylpyridin-2-yl)methyl)-3H-[1,2,3]triazolo [4,5-b]pyridin-5-amine] is 6.00 to 7.00.

These data come from US10214527B2, “Triazolopyridine inhibitors of myeloperoxidase” (priority 2015, dated 2019).
